According to patent US9328326B2, “Method for isolating cells” (MERCK PATENT GMBH, priority 2006, dated 2016):

Assays:
[1] = system: L. monocytogenes; experiment: growth of L. monocytogenes after treatment with compounds of the matrix lysis protocol (Example 1); format: cell-based; conditions: incubated 2 h at 45 °C in the compound, then plated
Description: L. monocytogenes EGDe was used as a DNA quantification standard for real-time PCR and for artificial contamination of food samples. The bacteria were maintained at -80° C. using the MicroBank technology (Pro-Lab Diagnostics, Canada). Listeria were grown in tryptone soy broth with 0.6% ([…]; Oxoid, UK) at 37° C. over night. For artificial contamination of food and viability staining, one milliliter of the over night culture was transferred to one milliliter of fresh medium and incubated at 37° C. for three hours. Plate count method and tryptone soy agar plates supplemented with 0.6% (w/v) yeast extract (TSA-Y; Oxoid, UK) were used for quantification of the pure cultures of L. monocytogenes. The agar plates were incubated at 37° C. for 24 hours. For determination of the survival rate of L. monocytogenes treated with different chemical compounds of the matrix lysis buffer system, 100 μl of an overnight culture of L. monocytogenes was pelleted at 8,000×g for 5 min, resuspended in the chemical compound of choice, and incubated for 2 h at 45° C. and 300 rpm on an Eppendorf shaker (Eppendorf, Germany). Afterwards the bacterial cells were washed twice in 1×PBS at 5,000×g and resuspended in 120 μl 1×PBS. One-hundred μl of the suspension was plated on […] agar plates (Biokar, Beauvais, France). Incubation was performed 48 h at 37° C.

[2] = system: prfA gene of L. monocytogenes (real-time PCR); experiment: inhibitory effects of detergents on real-time PCR; format: biochemical
Description: For experiments analysing the effects of food matrices and detergents contained in the matrix lysis buffer on real-time PCR, food matrices were mixed with equal amounts of ddH2O, stomachered for 3 minutes, diluted in a 10-fold dilution series (10^−1, 10^−2 and 10^−3) and 5 μl directly subjected to the real time PCR samples. An aliquot was cooked 15 min at 100° C. for comparison prior to subjection of 5 μl to real-time PCR. Detergents were diluted in 2-fold dilution series (0.4 M-0.05 M Urea and 0.8%-0.005% SDS) and 5 μl were subjected to the real-time PCR samples.
Real-time PCR was performed in an Mx3000p real-time PCR thermocycler (Stratagene, USA). The 25 μl volume contained 20 mM Tris-HCl, 50 mM KCl, 3.5 mM MgCl2. 500 nM of each primer, 250 nM of each probe, 200 μM (each) of dATP, dTTP, dGTP and dCTP, 1.5 U of Platinum Taq DNA polymerase (Invitrogen, Austria), 25 copies of the IAC and […]. Amplification following initial denaturation at 94° C. for 2 min was performed in 45 cycles, at each 94° C. for 15 s and 64° C. for 1 minute.

[3] = system: Gram negative bacteria; experiment: recovery of Gram negative bacteria in matrix lysis; format: cell-based; conditions: as detergent of the lysis buffer
Description: Combinations of five different detergents (Tween 20®, Tween 80®, Triton X-100®; SDS, and Lutensol AO-7), three enzymes (Protease, alpha-amylase and cellulase) and a sucrose buffer (0.25 M sucrose, 1 mM EDTA and 0.05 M Tris, pH 7.6) were compared with respect of their ability to dissolve food matrices (salmon, chicken meat, diary products, ice cream, blood, starch rich foodstuffs, egg and milk) and their effect on the cellular appearance of the bacterial cells. All chemicals used (with the exception of SDS, Sigma-Aldrich, Germany; Lutensol AO-7, BASF, Netherland and Savinase, Novozymes, Denmark) were purchased at Merck (Germany). The matrix lysis protocol is described below.
Matrix lysis was generally performed as described in example 1. Processing meat, fish, chicken and blood or when Gram positive bacteria were targeted, buffer system I (8 M urea, 1% SDS, and 1×PBS) was used. Buffer system II (8 M urea, 1% Lutensol AO-7 and 1×PBS) was used if Gram negative bacteria were targeted and for all other foodstuffs used (Milk, diary products, ice cream, and egg).

[4] = system: S. aureus; experiment: BacLight viability staining after exposure to chemical compounds; format: cell-based; parameters: key: red: Red colour indicates dead cells; c.r.: Reduced cell count; green: Green colour indicates living cells
Description: (§1) For assessment of the survival rate of the bacteria treated with different chemical compounds of the matrix lysis buffer system, 100 μl of an overnight culture was pelleted at 8,000×g for 5 min, re-suspended in 1 ml of the chemical compound of choice, […] shaker (Eppendorf, Germany). The bacterial cells were then washed twice in 1×PBS at 5,000×g and re-suspended in 120 μl 1×PBS. One-hundred it of the suspension was plated onto TSB-Y agar plates (Oxoid). Incubation was performed for 48 h at 37° C. Additionally the Live/Dead® BacLight™ Bacterial Viability Kit (Molecular Probes, USA) was used to examine the condition of the bacteria after the chemical treatments.
(§2) Viability staining was performed using the Live/Dead® BacLight™ Bacterial Viability Kit (Molecular Probes) as prescribed by the manufacturer. Ten fields per filter were analysed, and two filters were prepared for each sample.

[5] = system: L. monocytogenes; experiment: as above; format: cell-based; parameters: key: red: Red colour indicates dead cells; c.r.: Reduced cell count; green: Green colour indicates living cells
Description: as §1, §2

[6] = system: E. coli; experiment: as above; format: cell-based; parameters: key: red: Red colour indicates dead cells; c.r.: Reduced cell count; green: Green colour indicates living cells
Description: as §1, §2

[7] = system: B. cereus; experiment: as above; format: cell-based; parameters: key: red: Red colour indicates dead cells; c.r.: Reduced cell count; green: Green colour indicates living cells
Description: as §1, §2

[8] = system: S. aureus; experiment: plate growth after exposure to chemical compounds; format: cell-based
Description: as §1

[9] = system: L. monocytogenes; experiment: plate growth after exposure to chemical compounds; format: cell-based
Description: as §1

[10] = system: S. thyphimurium; experiment: plate growth after exposure to chemical compounds; format: cell-based
Description: as §1

[11] = system: E. coli; experiment: plate growth after exposure to chemical compounds; format: cell-based
Description: as §1

[12] = system: B. cereus; experiment: plate growth after exposure to chemical compounds; format: cell-based
Description: as §1

[13] = system: S. thyphimurium; experiment: BacLight viability staining after exposure to chemical compounds; format: cell-based
Description: as §1, §2

CCCCCCCCCCCCOS(=O)(=O)[O-].[Na+] [1% SDS, sodium dodecyl sulfate]
growth of L. monocytogenes on TSY agar after treatment [1]: Complete inhibition of growth
inhibitory effect on real-time PCR ([2]; SDS 0.8% to 0.005%, 15.5 and 1,550 copies/PCR): no amplification
recovery of Gram negative bacteria [3]: decreasing the recovery

NC(N)=O [8 M Urea, urea]
S. aureus BacLight ([4]; 37 °C): green
S. aureus BacLight ([4]; 42 °C): green
S. aureus BacLight ([4]; 45 °C): green
L. monocytogenes BacLight ([5]; 37 °C): green^c
L. monocytogenes BacLight ([5]; 42 °C): green
L. monocytogenes BacLight ([5]; 45 °C): green
E. coli BacLight ([6]; 37 °C): red^a
E. coli BacLight ([6]; 42 °C): c.r./red
E. coli BacLight ([6]; 45 °C): c.r./red
B. cereus BacLight ([7]; 37 °C): green
B. cereus BacLight ([7]; 42 °C): green
B. cereus BacLight ([7]; 45 °C): green
growth of L. monocytogenes on TSY agar after treatment [1]: able to grow
inhibitory effect on real-time PCR ([2]; urea 0.4 M and 0.2 M, 15.5 copies of the target): total inhibition
inhibitory effect on real-time PCR ([2]; urea 0.4 M, 1,550 copies of the target): total inhibition
S. aureus Plate growth ([8]; 37 °C): pos..
S. aureus Plate growth ([8]; 42 °C): pos..
S. aureus Plate growth ([8]; 45 °C): pos..
L. monocytogenes Plate growth ([9]; 37 °C): pos..
L. monocytogenes Plate growth ([9]; 42 °C): pos..
L. monocytogenes Plate growth ([9]; 45 °C): pos..
S. thyphimurium Plate growth ([10]; 37 °C): neg.
S. thyphimurium Plate growth ([10]; 42 °C): neg.
S. thyphimurium Plate growth ([10]; 45 °C): neg.
E. coli Plate growth ([11]; 37 °C): neg.
E. coli Plate growth ([11]; 42 °C): neg.
B. cereus Plate growth ([12]; 37 °C): pos..
B. cereus Plate growth ([12]; 42 °C): pos..
B. cereus Plate growth ([12]; 45 °C): pos..
S. thyphimurium BacLight ([13]; 37 °C): c.r.^b/red
S. thyphimurium BacLight ([13]; 42 °C): c.r./red
S. thyphimurium BacLight ([13]; 45 °C): c.r./red
